Columns and labels:
[1] = test system: HMGB1; assay: HMGB1 relocation from nucleus to cytoplasm in RAW 264.7 cells (fraction Western blot, immunofluorescence); format: cell-based, Murine; conditions: OA 100 nM for 8 h, TNF-α 20 ng/mL for 16 h
Method: (A) RAW 264.7 cells were treated with TNF-α (20 ng/mL for 16 h) or OA (100 nM for 8 h). The nuclear (Nu) and cytoplasmic (Cyt) proteins were separated and blotted with anti-HMGB1. (B) Metabolic [^32P] labeling of HMGB1 in RAW 264.7 cells. RAW 264.7 cells were metabolically labeled with [^32P]orthophosphate for 4 h, and stimulated with OA (100 nM), TNF-α (20 ng/mL) and LPS (100 ng/mL) for 2 or 8 h. WCLs were immunoprecipitated with rabbit anti-HMGB1 from two different vendors of BD PharMingen (BD) and Upstate Biotechnology (UP). The proteins were resolved and transferred to nitrocellulose membrane and visualized by autoradiography. (C) RAW 264.7 cells were treated with TNF-α, and WCLs were immunoprecipitated with anti-pSer, anti-pTyr, and anti-pThr and blotted with anti-HMGB1. WCL was loaded as an HMGB1 control (lane 1). Anti-pAKT was used for a control antibody (lane 3). […]
To analyze the secretion of HMGB1 in the supernatants, culture media were replaced with serum-free OPTI-MEM (Gibco BRL) medium and concentrated with Amicon Centricon filtration (Millipore) after removing cell debris, and Western blot analysis was performed. […] The cells were lysed using 1% Nonidet P-40 buffer containing a protease inhibitor cocktail (Sigma), and the protein concentrations were measured by Bradford assay (Biorad) for the analysis of whole cell lysates (WCLs). […]

[2] = test system: HMGB1 phosphorylation; assay: Metabolic [32P] labeling / immunoprecipitation of HMGB1 phosphorylation in RAW 264.7 cells; format: cell-based, Murine
Method: (A) RAW 264.7 cells were treated with TNF-α (20 ng/mL for 16 h) or OA (100 nM for 8 h). The nuclear (Nu) and cytoplasmic (Cyt) proteins were separated and blotted with anti-HMGB1. (B) Metabolic [^32P] labeling of HMGB1 in RAW 264.7 cells. RAW 264.7 cells were metabolically labeled with [^32P]orthophosphate for 4 h, and stimulated with OA (100 nM), TNF-α (20 ng/mL) and LPS (100 ng/mL) for 2 or 8 h. WCLs were immunoprecipitated with rabbit anti-HMGB1 from two different vendors of BD PharMingen (BD) and Upstate Biotechnology (UP). The proteins were resolved and transferred to nitrocellulose membrane and visualized by autoradiography. (C) RAW 264.7 cells were treated with TNF-α, and WCLs were immunoprecipitated with anti-pSer, anti-pTyr, and anti-pThr and blotted with anti-HMGB1. WCL was loaded as an HMGB1 control (lane 1). Anti-pAKT was used for a control antibody (lane 3). (D) RAW 264.7 cells were treated with TNF-α for the indicated time. WCLs were immunoprecipitated with anti-HMGB1, blotted with anti-pSer and reblotted with anti-HMGB1. The same culture supernatants were concentrated, separated, and blotted with anti-HMGB1.
To identify the phosphorylated residues of the HMGB1 protein, TNF-α-treated RAW 264.7 cells were lysed with a protease inhibitor cocktail. Cell homogenates were centrifuged at 20,000 g for 15 min and precleared by incubation with protein G-Sepharose (Amersham) at 4° C. for 30 min. The precleared extracts (500 μg) were incubated with rabbit polyclonal anti-pSer, anti-pTyr and anti-pThr (all from Chemicon) and then protein G-Sepharose was added and incubated for 3 h at 4° C. […]
RAW 264.7 cells were cultured in phosphate starved condition of phosphate-free DMEM containing 10% dialyzed FBS (Gibco BRL) for 4 h and further incubated for 4 h by adding 600 μCi of [^32P]orthophosphate (Amersham Pharmacia Biotech) per mL to each dish. […] The concentration of total soluble proteins in the supernatant was quantified using the Bradford reagent (Bio-Rad). […] The gels were dried and the radioactivity was analyzed by autoradiography.

[3] = test system: HMGB1-GFP; assay: HMGB1-GFP imaging in transfected RAW 264.7 cells; format: cell-based, Murine; conditions: OA 100 nM 4 h, TSA 10 ng/mL 2 h, TNF-α 20 ng/mL 16 h
Method: RAW 264.7 cells (A) and human PBMo cells (B) were treated with OA (100 nM for 8 h), and immunofluorescent staining was performed to observe the HMGB1. TNF-α (20 ng/mL for 16 h) was used as a positive control cytokine. […] (C) Western blot analysis of HMGB1 protein in the culture supernatants of PBMo cells, which were from (B). (D) HMGB1 in the nucleus is transported to the cytoplasm by phosphorylation. RAW 264.7 cells were transfected with a wild type HMGB1-GFP plasmid and cultured for 24 h. And then the cells were treated with 2 μg/mL CHX for 1 h followed by OA treatment for 4 h or by TSA treatment for 2 h and green fluorescent images were observed. Bar: 10 μm.
FIGS. 6A-6E show Mutation of HMGB1 NLS sites alters subcellular distribution of HMGB1. (A) RAW 264.7 cells were transfected with wild-type and each mutant HMGB1-GFP plasmid and immunofluorescent assays were performed 24 h later without any treatment. (B, C, and D) OA (100 nM for 4 h), TSA (10 ng/mL for 2 h), and TNF-α (20 ng/mL for 16 h) were applied 24 h after transfection to observe the effect on HMGB1 nuclear export by phosphorylation, acetylation, or both. […] (E) Secretion of wild-type and each mutant HMGB1-GFP was tested 24 h after transfection by Western blotting. The culture supernatants were concentrated and blotted with anti-GFP. Bar: 10 μm. […]

[4] = test system: HMGB1 binding to KAP-α1; assay: GST-KAP-α1 pull-down of HMGB1 from treated RAW 264.7 cell lysates; conditions: GST-KAP-α1 on glutathione-Sepharose beads; WCLs of treated RAW 264.7 cells
Method: FIGS. 4A-4C show the binding of HMGB1 to nuclear import proteins. (A) GST-KAP-α1, -2, -3, -4, -5, -6, and -β1 fusion proteins immobilized on glutathione-Sepharose 4B beads were incubated with WCLs of RAW 264.7 cells overnight at 4° C. Sepharose-bound proteins were separated and the membrane was blotted with anti-HMGB1 and reblotted with anti-GST. WCL was loaded as an HMGB1 control (lane 1), and GST protein was used as a negative control (lane 2). (B) Six His-tagged wild type HMGB1 and boxes A (aa 1-87) and B (aa 88-162) HMGB1 proteins were purified from E. coli BL21 and identified at expected size by Coomassie blue staining. HMGB1 and GST-KAP-α1 was incubated for 2 h at 4° C., and the precipitate was blotted with anti-His for HMGB1 and reblotted with anti-GST for KAP-α1. (C) GST-KAP-α1, immobilized on glutathione-Sepharose beads, was incubated with WCLs of RAW 264.7 cells which were treated with OA, TSA, or TNF-α. The precipitates were blotted with anti-HMGB1 and reblotted with anti-GST.
Two μg of each GST-KAP protein was coupled to glutathione sepharose 4B beads and incubated with 500 μg of WCL from RAW 264.7 cells as a HMGB1 source at 4° C. overnight. […]

Row | Molecule | HMGB1 in the cytoplasm (nuclear/cytoplasmic fractions, Western blot) [1] | level of phosphorylated (p-) HMGB1 (IP anti-HMGB1, blot anti-pSer) ([2]; RAW 264.7 cells treated with TNF-α for the indicated time) | phosphorylated amino acid residue of HMGB1 (IP anti-pSer, anti-pTyr, anti-pThr) ([2]; RAW 264.7 cells, 20 ng/mL TNF-α for 16 h) | HMGB1 phosphorylation ([32P]orthophosphate labeling, autoradiography) ([2]; RAW 264.7 cells, 100 nM OA, 20 ng/mL TNF-α, 100 ng/mL LPS, 2 or 8 h) | HMGB1-GFP (wild-type and mutants) relocation 24 h after transfection [3] | binding of HMGB1 from treated cell lysate to KAP-α1 [4]
1 | TNF-α | translocation of nuclear HMGB1 to the cytoplasm | increased by TNF-α in a time-dependent manner | Only serine residues of HMGB1 were phosphorylated | phosphorylated | The same results were observed | 
2 | CC(/C=C/C(=O)NO)=C\[C@@H](C)C(=O)c1ccc(N(C)C)cc1 [TSA, trichostatin A] |  |  |  |  | the wild-type and all mutant HMGB1-GFPs showed cytoplasmic relocation | no binding to KAP-α1
